Results taken from patent EP0960190B1, “IMI[…] RESISTANT SUGAR BEET PLANTS” (Michigan State University, priority 1996, dated 1998).
Where two headings read alike, the source gives them in different places.

Columns and labels:
93R30B [1] = assay: Shoot culture herbicide resistance (shoot injury and fresh weight on M20 media); type: cell-based, Beta vulgaris L.; conditions: for R/S / IC50: 93R30B; for R/S: ratio of resistant to sensitive control (Rel-1) I50 values, shoot culture; for R/S / level of resistance: 30240 min; for IC50: herbicide concentration causing 50% injury to the shoot culture, 3 weeks, read-out: I50; for level of resistance: 93R30B in shoot culture
Protocol: (§1) In step 7, shoot cultures were assessed for herbicide resistance by placing three small, consistently sized shoot cuttings on each plate of M20 media supplemented with logarithmically increasing concentrations of imidazolinone herbicide, sulfonylurea or triazolopyrimidine sulfonanilide ranging from 1 nM to 0.1 mM. 93R30 culture responses were compared to that of shoot cultures of a sensitive control (Rel-1) and a chlorsulfuron resistant, imidazolinone sensitive control (EL-49). Shoot cultures were maintained at 20 µE/m^2 s light intensity at 25°C for 3 weeks. Shoot culture was determined by rating shoot injury and fresh weight 3 weeks after transfer to selective media. Magnitude of herbicide resistance was determined by the ratio of resistant to sensitive I50 values (the herbicide concentration causing 50 percent injury).

EL-49 = assay: as above; type: cell-based, Beta vulgaris L.; conditions: for IC50 / R/S: EL-49; for IC50: herbicide concentration causing 50% injury to the shoot culture, 3 weeks, read-out: I50; for R/S: ratio of resistant to sensitive control (Rel-1) I50 values, shoot culture
Protocol: as §1

Rel-1 [2] = assay: as above; type: cell-based, Beta vulgaris L.; conditions: Rel-1 sensitive control, herbicide concentration causing 50% injury to the shoot culture, 3 weeks, read-out: I50
Protocol: as §1

Sur = assay: Whole plant sugarbeet response to postemergence ALS-inhibiting herbicides; type: in vivo, Beta vulgaris L.; conditions: for R/S: Sur whole plant, postemergence, relative to Rel-1
Sir-13 = assay: as above; type: in vivo, Beta vulgaris L.; conditions: for R/S: Sir-13 whole plant, postemergence, relative to Rel-1
93R30B [3] = assay: as above; type: in vivo, Beta vulgaris L.; conditions: for R/S: 93R30B (SB) whole plant, postemergence, relative to Rel-1
Rel-1 [4] = assay: as above; type: in vivo, Beta vulgaris L.; conditions: Rel-1 whole plant, herbicide applied postemergence
ALS enzyme from Sur = assay: ALS enzyme activity assay in leaf extracts (acetoin colorimetry); type: biochemical, Beta vulgaris L.; conditions: Sur single mutant ALS enzyme in vitro
Protocol: Standard procedures were utilized to partially purify ALS from rapidly expanding leaves of greenhouse-grown sugar beet plants (Hart, et al. Weed Science 40:378-383 (1992)). Extracts from heterozygous 93R30B F1 plants and Rel-1 S1 seed were assayed for ALS activity in the presence of logarithmically increasing concentrations of imazethapyr. ALS activity was determined from leaf extracts of REL-1 and 93R30B sugarbeet lines. Plants were grown in the greenhouse as described above to the four to six leaf stage. ALS activity from fresh extracts was determined in the presence of imazethapyr and chlorsulfuron at logarithmically increasing concentrations. […]
(§2) ALS activity is measured by adding 0.2 ml of enzyme preparation (diluted 3:1 with resuspension buffer) to 1.3 ml of reaction buffer (25 mM K2HPO4, pH 7.0, 0.625 mM MgCl2, 25 mM sodium pyruvate, 0.625 mM thiamine pyrophosphate, 1.25 µM flavin adenine dinucleotide) and incubated at 35°C for 1 hour. […]
(§3) Purchased acetoin was used as a standard for the colorimetric reaction. Acetoin concentrations were determined by measuring the absorption of the reaction solution at 530 nm. […] Protein concentrations of the extracts was determined by the method of Bradford (Anal. Biochem. 72:248-254 (1976)) using bovine serum albumin for the standard curve.

ALS extracts from 93R30B = assay: as above; type: biochemical, Beta vulgaris L.; conditions: for resistance of the ALS enzyme: SB double mutant ALS enzyme in vitro
Protocol: Standard procedures were utilized to partially purify ALS from rapidly expanding leaves of greenhouse-grown sugar beet plants (Hart, et al. Weed Science 40:378-383 (1992)). Extracts from heterozygous 93R30B F1 plants and Rel-1 S1 seed were assayed for ALS activity in the presence of logarithmically increasing concentrations of imazethapyr. ALS activity was determined from leaf extracts of REL-1 and 93R30B sugarbeet lines. Plants were grown in the greenhouse as described above to the four to six leaf stage. ALS activity from fresh extracts was determined in the presence of imazethapyr and chlorsulfuron at logarithmically increasing concentrations. The methods and procedures used were modified from those outlined by Ray (Plant Physiol. 75:827-831 (1984)) and Shaner, et al. (Plant Physiol. 76:545-546 (1984)). Ten g of sugarbeet leaves were homogenized in 40 ml cold homogenization buffer (0.1 M K2HPO4, pH 7.5, 1 mM sodium pyruvate, 0.5 mM MgCl2, 0.5 mM thiamine pyrophosphate, 10 µM of flavin adenine dinucleotide, 10% by vol glycerol) plus 2.5 g polyvinylpolypyrolidone. The homogenate was filtered through eight layers of cheesecloth and centrifuged at 27,000 g for 20 minutes. The supernatant was removed and brought to 50% saturation with (NH4)2SO4. […]
as §2
as §3, with “curve. […]” for “curve.”

ALS enzyme from Sir-13 = assay: as above; type: biochemical, Beta vulgaris L.; conditions: Sir-13 single mutant ALS enzyme in vitro
sensitive cells = assay: Cell selection on herbicide-supplemented solid B1 media; type: cell-based, Beta vulgaris L.; conditions: 50 nM in solid B1 media, 8-12 weeks, dim fluorescent light
From the text: Rel-1 (Regenerating East Lansing-1) is a highly regenerable male fertile sugar beet line used for initial cell selection for herbicide-resistant mutant to the sulfonylureas and is used as a sensitive control for most experiments. CR1-B This sugar beet isolate was developed by plating Rel-1 cells on chlorsulfuron-containing media. This variant is sulfonylurea resistant with modest resistance to the triazolopyrimidine herbicide, flumetsulam, but no imidazolinone resistance. This variant has been described by Saunders et al. (Crop Sci. 32:1357-1360) and Hart et al. (Weed Sci. 40:378-383 and 41:317-324). The SU resistance gene has been labeled Sur. 93R30B This isolate was developed by plating cells of a highly regenerable, Sur homozygous sugar beet plant (descendant of CR1-B) on media containing imazethapyr. EL-49 East Lansing 49, released by the USDA in 1993. Sugar beet line homozygous for the Sur gene, used for a sulfonylurea-resistant, imazethapyr- sensitive control. • a. Plants were selected as source materials for somaclonal selection based on their ability to generate callus under high cytokinin conditions (in B1 media) and regenerate shoots from callus. […]

Compound | R/S (93R30B [1]) | IC50 (93R30B [1]; Beta vulgaris, 504 h) | IC50 (EL-49; Beta vulgaris, 504 h) | R/S (EL-49; 30240 min) | IC50 (Rel-1 [2]; Beta vulgaris, 504 h) | R/S (Sur) | R/S (Sir-13) | R/S (93R30B [3]) | I50 (Rel-1 [4]) | level of resistance (93R30B [1]) | further results
COCc1cnc(C2=NC(C)(C(C)C)C(=O)N2)c(C(=O)O)c1 (stereo not drawn) [AC299,263] | 1400X | 40000 nM | 70 nM | 3X | 30 nM | 4 X | 130 X | >250 X | 1.1 g ha^-1 |  | 
COc1nc(C)nc(NC(=O)NS(=O)(=O)c2ccccc2Cl)n1 [Chlorsulfuron] | 10000X | 25000 nM | 25000 nM | 10000X | 2.5 nM | >1000 X | 1 X | 20 X | 0.07 g ha^-1 | 10,000 fold | R/S (Sur; listed as chlorsulfuron): > 1000 X; reduction of whole plant resistance of the SB double mutant (93R30B [3]; SB double mutant compared with Sur single mutant, whole plant): more than 50 fold
Cc1ccn2nc(S(=O)(=O)Nc3c(F)cccc3F)nc2n1 [Flumetsulam] | 60X | 1700 nM | 1100 nM | 40X | 28 nM |  |  |  |  | 60 fold | resistance of the ALS enzyme (ALS enzyme from Sur): 50 X; resistance of the ALS enzyme (ALS extracts from 93R30B): 200 X; resistance of the ALS enzyme (ALS enzyme from Sir-13): 3 X
CC(C)C1(C)N=C(c2nc3ccccc3cc2C(=O)O)NC1=O (stereo not drawn) [Imazaquin] | 400X | 16000 nM | 40 nM | 1X | 40 nM |  |  |  |  |  | 
CCc1cnc(C2=NC(C)(C(C)C)C(=O)N2)c(C(=O)O)c1 (stereo not drawn) [Imazethapyr] | 3600X | 64000 nM | 53 nM | 3X | 18 nM | 3 X | 100 X | 300 X | 0.5 g ha^-1 | 3600 fold | resistance of the ALS enzyme (ALS enzyme from Sur): 1 X; level of resistance (EL-49; EL-49 in shoot culture, 30240 min): 3 fold; resistance of the ALS enzyme (ALS extracts from 93R30B): > 1000 X; level of resistance at the enzyme level (ALS extracts from 93R30B; ratio of I50's for the resistant (93R30B, heterozygous F1) and sensitive (Rel-1) lines): 1750 fold; resistance (Sur; Sur single mutant, postemergence to whole plants): 3 fold; cell survival (sensitive cells): all sensitive cells died; resistance of the ALS enzyme (ALS enzyme from Sir-13): 40 X; resistance (Sir-13; Sir-13 single mutant, postemergence to whole plants): 100 fold; resistance (93R30B [3]; SB double mutant, postemergence to whole plants): 300 fold
Cc1cc(C)nc(NC(=O)NS(=O)(=O)c2ccccc2C(=O)O)n1 [Sulfometuron] |  |  |  |  |  | 23 X | 1 X | 4X | 0.2 g ha^-1 |  | 
Imazamethabenzmethyl | > 125X |  |  | 25X |  |  |  |  |  |  | IC50 (93R30B [1]): > 100000 nM; IC50 (EL-49): 20000 nM; IC50 (Rel-1 [2]): 800 nM
